{"source": "the supplement of paper PMC13207355", "conditions_in_all_cases": "exposure time: 72 h", "key": {"[1]": {"tested_on": "FT3469 (normal neural stem cell line)", "assay": "surviving fraction (nuclei count normalised to DMSO); higher = more cells surviving (less toxic)"}, "[2]": {"tested_on": "E28 (patient-derived glioblastoma stem cells of classical subtype)", "assay": "surviving fraction (nuclei count normalised to DMSO); higher = more cells surviving (less toxic)"}, "[3]": {"tested_on": "E31 (patient-derived glioblastoma stem cells of proneural subtype)", "assay": "surviving fraction (nuclei count normalised to DMSO); higher = more cells surviving (less toxic)"}, "[4]": {"tested_on": "E34 (patient-derived glioblastoma stem cells of proneural subtype)", "assay": "surviving fraction (nuclei count normalised to DMSO); higher = more cells surviving (less toxic)"}, "[5]": {"tested_on": "E57 (patient-derived glioblastoma stem cells of mesenchymal subtype)", "assay": "surviving fraction (nuclei count normalised to DMSO); higher = more cells surviving (less toxic)"}, "[6]": {"tested_on": "E21 (patient-derived glioblastoma stem cells of mesenchymal subtype)", "assay": "surviving fraction (nuclei count normalised to DMSO); higher = more cells surviving (less toxic)"}, "[7]": {"tested_on": "E13 (patient-derived glioblastoma stem cells of classical subtype)", "assay": "surviving fraction (nuclei count normalised to DMSO); higher = more cells surviving (less toxic)"}, "[8]": {"tested_on": "FT3469", "assay": "phenotypic distance (Euclidean, principal components) from DMSO controls (arbitrary units); higher = stronger morphological change"}, "[9]": {"tested_on": "E28", "assay": "phenotypic distance (Euclidean, principal components) from DMSO controls (arbitrary units); higher = stronger morphological change"}, "[10]": {"tested_on": "E31", "assay": "phenotypic distance (Euclidean, principal components) from DMSO controls (arbitrary units); higher = stronger morphological change"}, "[11]": {"tested_on": "E34", "assay": "phenotypic distance (Euclidean, principal components) from DMSO controls (arbitrary units); higher = stronger morphological change"}, "[12]": {"tested_on": "E57", "assay": "phenotypic distance (Euclidean, principal components) from DMSO controls (arbitrary units); higher = stronger morphological change"}, "[13]": {"tested_on": "E21", "assay": "phenotypic distance (Euclidean, principal components) from DMSO controls (arbitrary units); higher = stronger morphological change"}, "[14]": {"tested_on": "E13", "assay": "phenotypic distance (Euclidean, principal components) from DMSO controls (arbitrary units); higher = stronger morphological change"}}}
{"smiles": "COc1cc([C@@H]2c3cc4c(cc3[C@@H](O[C@@H]3O[C@@H]5CO[C@@H](c6cccs6)O[C@H]5[C@H](O)[C@H]3O)[C@H]3COC(=O)[C@H]23)OCO4)cc(OC)c1O", "note": "[Teniposide]", "values": [{"measurement": "surviving fraction", "setting": "[1]; 4.1 nM", "value": 0.636}, {"measurement": "surviving fraction", "setting": "[1]; 12.3 nM", "value": 0.643}, {"measurement": "surviving fraction", "setting": "[1]; 37 nM", "value": 0.644}, {"measurement": "surviving fraction", "setting": "[1]; 111.1 nM", "value": 0.62}, {"measurement": "surviving fraction", "setting": "[1]; 333.3 nM", "value": 0.595}, {"measurement": "surviving fraction", "setting": "[1]; 1000 nM", "value": 0.629}, {"measurement": "surviving fraction", "setting": "[1]; 3000 nM", "value": 0.544}, {"measurement": "surviving fraction", "setting": "[2]; 4.1 nM", "value": 0.491}, {"measurement": "surviving fraction", "setting": "[2]; 12.3 nM", "value": 0.379}, {"measurement": "surviving fraction", "setting": "[2]; 37 nM", "value": 0.428}, {"measurement": "surviving fraction", "setting": "[2]; 111.1 nM", "value": 0.351}, {"measurement": "surviving fraction", "setting": "[2]; 333.3 nM", "value": 0.32}, {"measurement": "surviving fraction", "setting": "[2]; 1000 nM", "value": 0.269}, {"measurement": "surviving fraction", "setting": "[2]; 3000 nM", "value": 0.314}, {"measurement": "surviving fraction", "setting": "[3]; 4.1 nM", "value": 0.376}, {"measurement": "surviving fraction", "setting": "[3]; 12.3 nM", "value": 0.25}, {"measurement": "surviving fraction", "setting": "[3]; 37 nM", "value": 0.241}, {"measurement": "surviving fraction", "setting": "[3]; 111.1 nM", "value": 0.201}, {"measurement": "surviving fraction", "setting": "[3]; 333.3 nM", "value": 0.2}, {"measurement": "surviving fraction", "setting": "[3]; 1000 nM", "value": 0.243}, {"measurement": "surviving fraction", "setting": "[3]; 3000 nM", "value": 0.191}, {"measurement": "surviving fraction", "setting": "[4]; 4.1 nM", "value": 0.758}, {"measurement": "surviving fraction", "setting": "[4]; 12.3 nM", "value": 0.677}, {"measurement": "surviving fraction", "setting": "[4]; 37 nM", "value": 0.577}, {"measurement": "surviving fraction", "setting": "[4]; 111.1 nM", "value": 0.57}, {"measurement": "surviving fraction", "setting": "[4]; 333.3 nM", "value": 0.501}, {"measurement": "surviving fraction", "setting": "[4]; 1000 nM", "value": 0.447}, {"measurement": "surviving fraction", "setting": "[4]; 3000 nM", "value": 0.373}, {"measurement": "surviving fraction", "setting": "[5]; 4.1 nM", "value": 0.727}, {"measurement": "surviving fraction", "setting": "[5]; 12.3 nM", "value": 0.418}, {"measurement": "surviving fraction", "setting": "[5]; 37 nM", "value": 0.323}, {"measurement": "surviving fraction", "setting": "[5]; 111.1 nM", "value": 0.212}, {"measurement": "surviving fraction", "setting": "[5]; 333.3 nM", "value": 0.167}, {"measurement": "surviving fraction", "setting": "[5]; 1000 nM", "value": 0.178}, {"measurement": "surviving fraction", "setting": "[5]; 3000 nM", "value": 0.148}, {"measurement": "surviving fraction", "setting": "[6]; 4.1 nM", "value": 0.902}, {"measurement": "surviving fraction", "setting": "[6]; 12.3 nM", "value": 0.682}, {"measurement": "surviving fraction", "setting": "[6]; 37 nM", "value": 0.589}, {"measurement": "surviving fraction", "setting": "[6]; 111.1 nM", "value": 0.552}, {"measurement": "surviving fraction", "setting": "[6]; 333.3 nM", "value": 0.376}, {"measurement": "surviving fraction", "setting": "[6]; 1000 nM", "value": 0.145}, {"measurement": "surviving fraction", "setting": "[6]; 3000 nM", "value": 0.177}, {"measurement": "surviving fraction", "setting": "[7]; 4.1 nM", "value": 0.713}, {"measurement": "surviving fraction", "setting": "[7]; 12.3 nM", "value": 0.528}, {"measurement": "surviving fraction", "setting": "[7]; 37 nM", "value": 0.45}, {"measurement": "surviving fraction", "setting": "[7]; 111.1 nM", "value": 0.412}, {"measurement": "surviving fraction", "setting": "[7]; 333.3 nM", "value": 0.351}, {"measurement": "surviving fraction", "setting": "[7]; 1000 nM", "value": 0.305}, {"measurement": "surviving fraction", "setting": "[7]; 3000 nM", "value": 0.174}, {"measurement": "phenotypic distance", "setting": "[8]; 4.1 nM", "value": 1.68}, {"measurement": "phenotypic distance", "setting": "[8]; 12.3 nM", "value": 2.44}, {"measurement": "phenotypic distance", "setting": "[8]; 37 nM", "value": 2.6}, {"measurement": "phenotypic distance", "setting": "[8]; 111.1 nM", "value": 2.26}, {"measurement": "phenotypic distance", "setting": "[8]; 333.3 nM", "value": 1.97}, {"measurement": "phenotypic distance", "setting": "[8]; 1000 nM", "value": 1.78}, {"measurement": "phenotypic distance", "setting": "[8]; 3000 nM", "value": 2.12}, {"measurement": "phenotypic distance", "setting": "[9]; 4.1 nM", "value": 3.11}, {"measurement": "phenotypic distance", "setting": "[9]; 12.3 nM", "value": 3.7}, {"measurement": "phenotypic distance", "setting": "[9]; 37 nM", "value": 3.52}, {"measurement": "phenotypic distance", "setting": "[9]; 111.1 nM", "value": 3.17}, {"measurement": "phenotypic distance", "setting": "[9]; 333.3 nM", "value": 3.7}, {"measurement": "phenotypic distance", "setting": "[9]; 1000 nM", "value": 3.58}, {"measurement": "phenotypic distance", "setting": "[9]; 3000 nM", "value": 3.53}, {"measurement": "phenotypic distance", "setting": "[10]; 4.1 nM", "value": 4.09}, {"measurement": "phenotypic distance", "setting": "[10]; 12.3 nM", "value": 2.97}, {"measurement": "phenotypic distance", "setting": "[10]; 37 nM", "value": 3.3}, {"measurement": "phenotypic distance", "setting": "[10]; 111.1 nM", "value": 3.9}, {"measurement": "phenotypic distance", "setting": "[10]; 333.3 nM", "value": 2.97}, {"measurement": "phenotypic distance", "setting": "[10]; 1000 nM", "value": 2.67}, {"measurement": "phenotypic distance", "setting": "[10]; 3000 nM", "value": 3.37}, {"measurement": "phenotypic distance", "setting": "[11]; 4.1 nM", "value": 1.81}, {"measurement": "phenotypic distance", "setting": "[11]; 12.3 nM", "value": 2.04}, {"measurement": "phenotypic distance", "setting": "[11]; 37 nM", "value": 3.24}, {"measurement": "phenotypic distance", "setting": "[11]; 111.1 nM", "value": 3.96}, {"measurement": "phenotypic distance", "setting": "[11]; 333.3 nM", "value": 4.04}, {"measurement": "phenotypic distance", "setting": "[11]; 1000 nM", "value": 2.46}, {"measurement": "phenotypic distance", "setting": "[11]; 3000 nM", "value": 2.97}, {"measurement": "phenotypic distance", "setting": "[12]; 4.1 nM", "value": 1.82}, {"measurement": "phenotypic distance", "setting": "[12]; 12.3 nM", "value": 4.96}, {"measurement": "phenotypic distance", "setting": "[12]; 37 nM", "value": 6.24}, {"measurement": "phenotypic distance", "setting": "[12]; 111.1 nM", "value": 8.39}, {"measurement": "phenotypic distance", "setting": "[12]; 333.3 nM", "value": 8.07}, {"measurement": "phenotypic distance", "setting": "[12]; 1000 nM", "value": 6.94}, {"measurement": "phenotypic distance", "setting": "[12]; 3000 nM", "value": 6.61}, {"measurement": "phenotypic distance", "setting": "[13]; 4.1 nM", "value": 0.843}, {"measurement": "phenotypic distance", "setting": "[13]; 12.3 nM", "value": 2.77}, {"measurement": "phenotypic distance", "setting": "[13]; 37 nM", "value": 3.95}, {"measurement": "phenotypic distance", "setting": "[13]; 111.1 nM", "value": 5.39}, {"measurement": "phenotypic distance", "setting": "[13]; 333.3 nM", "value": 5.06}, {"measurement": "phenotypic distance", "setting": "[13]; 1000 nM", "value": 6.2}, {"measurement": "phenotypic distance", "setting": "[13]; 3000 nM", "value": 6.57}, {"measurement": "phenotypic distance", "setting": "[14]; 4.1 nM", "value": 1.43}, {"measurement": "phenotypic distance", "setting": "[14]; 12.3 nM", "value": 3.27}, {"measurement": "phenotypic distance", "setting": "[14]; 37 nM", "value": 4.96}, {"measurement": "phenotypic distance", "setting": "[14]; 111.1 nM", "value": 5.68}, {"measurement": "phenotypic distance", "setting": "[14]; 333.3 nM", "value": 5.77}, {"measurement": "phenotypic distance", "setting": "[14]; 1000 nM", "value": 5.12}, {"measurement": "phenotypic distance", "setting": "[14]; 3000 nM", "value": 6.24}]}
